Laboratory results from paper PMC9695908, “Potent Activation of Human but Not Mouse TRPA1 by JT010” (International Journal of Molecular Sciences, 2022).

Biological target: T1, human TRPA1 (hTRPA1) (Homo sapiens, UniProt O75762)
T1 construct: wild-type hTRPA1 in HEK cells
Experiment: Fura-2 Ca2+ imaging and whole-cell patch clamp in HEK-hTRPA1 cells; C621S and F669M mutants reduce response
Type: cell-based

T1 sequence (O75762 whole entry): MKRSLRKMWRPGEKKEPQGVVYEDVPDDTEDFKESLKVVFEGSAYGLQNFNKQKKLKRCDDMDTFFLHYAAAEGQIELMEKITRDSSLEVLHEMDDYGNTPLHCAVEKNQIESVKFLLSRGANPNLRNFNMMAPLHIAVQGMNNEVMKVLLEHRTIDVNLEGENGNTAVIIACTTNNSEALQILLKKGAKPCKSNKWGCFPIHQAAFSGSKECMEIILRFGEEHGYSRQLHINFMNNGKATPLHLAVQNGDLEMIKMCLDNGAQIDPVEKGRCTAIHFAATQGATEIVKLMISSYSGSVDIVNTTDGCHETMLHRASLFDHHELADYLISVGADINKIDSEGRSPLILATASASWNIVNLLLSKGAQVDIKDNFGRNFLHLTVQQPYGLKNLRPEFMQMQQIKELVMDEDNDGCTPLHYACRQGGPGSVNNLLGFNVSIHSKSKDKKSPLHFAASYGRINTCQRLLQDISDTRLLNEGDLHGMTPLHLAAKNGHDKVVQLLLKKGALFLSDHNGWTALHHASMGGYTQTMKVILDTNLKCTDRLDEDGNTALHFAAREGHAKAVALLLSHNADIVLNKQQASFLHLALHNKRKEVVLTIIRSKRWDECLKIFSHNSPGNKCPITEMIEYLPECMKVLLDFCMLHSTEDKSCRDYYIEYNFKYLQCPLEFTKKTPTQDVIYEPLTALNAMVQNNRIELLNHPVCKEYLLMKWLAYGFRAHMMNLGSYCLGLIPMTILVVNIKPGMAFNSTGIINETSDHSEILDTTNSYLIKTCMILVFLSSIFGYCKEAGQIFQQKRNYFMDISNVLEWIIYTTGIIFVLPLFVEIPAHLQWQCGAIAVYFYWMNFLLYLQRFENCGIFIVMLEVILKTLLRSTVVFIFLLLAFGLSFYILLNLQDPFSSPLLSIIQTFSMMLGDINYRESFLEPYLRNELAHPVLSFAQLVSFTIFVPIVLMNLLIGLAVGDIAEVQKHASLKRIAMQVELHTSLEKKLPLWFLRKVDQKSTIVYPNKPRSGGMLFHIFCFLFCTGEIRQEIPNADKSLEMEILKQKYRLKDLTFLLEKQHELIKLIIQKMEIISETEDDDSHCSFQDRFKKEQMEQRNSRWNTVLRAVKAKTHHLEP

COCCCN(C(=O)CCl)c1nc(-c2ccc(OC)cc2)cs1 [JT010]
EC50: ~10 nM
